Common to all, as to format: cell-based
Assay [1] concerns TNBC cell line MDA-MB-468. The assay is described as follows: Cell viability assay (MTS), MDA-MB-468. The conditions noted are these: Homo sapiens, 72 h incubation. An excerpt:
In an embodiment, for a comparison study, monomers and respective dimers were selected and further evaluated in Hs578t and MDA-MB-468 breast cell lines. […] These cell lines correspond to the basal-like subtype of breast cancer, included in the known triple negative subtype, since they are negative for Estrogen receptor (ER), progesterone receptor (PR) and Human epidermal growth factor receptor 2 (HER2) molecular markers. The clinical behaviour of these breast cancer subtype is very aggressive and there is still no specific molecular therapy available.
(§1) In an embodiment, three human breast cancer cell lines Hs578T, MDA-MB-468 and MCF-7, and a normal breast cell line MCF-10A, were obtained from ATCC (American Type Culture Collection). The cancer cell lines were cultured in Dulbecco's modified Eagle medium, 4.5 g/l glucose (DMEM, Gibco) supplemented with 10% heating inactivated Fetal Bovine Serum (FBS, Gibco) and 1% antibiotic solution (Penicillin-Streptomycin, Gibco). The normal cell line was cultured in Dulbecco's Modified Eagle Medium: Nutrient Mixture F-12 (DMEM/F12, Gibco) supplemented with 5% heating inactivated FBS (Gibco), 1% antibiotic solution (Penicillin-Streptomycin, Gibco), 1% steroid hormone (Hydrocortisone, Sigma-Aldrich), 0.1% peptide hormone (Insulin, Sigma-Aldrich) and 0.01% protein complex (Cholera Toxin, Gibco). Two distinct human acute myeloid leukemia (AML) cell lines, HL-60 (FAB M2) and KG-1 (erythroleukemia-FAB M6), and one human lymphoblastic leukemia (ALL) cell line, Jurkat (T cell type), were also used. These three cell lines were obtained from German Collection of Microorganisms and Cell cultures (DMSZ®, Deutsche Sammlung von Mikroorganismen and Zellkulturen in German). Cells were cultured in RPMI 1640 medium (Biochrom®-Merck Millipore) supplemented with 10% heating inactivated FBS (Biochrom®-Merck Millipore) and 1% antibiotic/antimitotic mixture (Invitrogen®). Three human glioblastoma (GBM) cell line models, two established and commercially available cell lines (U87MG and GAMG, kind gift from Rui M. Reis) and one primary GBM culture (GLIB) were also used. GBM cells were cultures in DMEM (Biochrom-Merck Millipore), all supplemented with 10% FBS. The Renal cell carcinoma cell lines A498, 786-O, Caki-2 and HK2 were obtained from ATCC. The cancer cell line A498 was cultured in MEM medium (Biochrom®-Merck Millipore), 786-O was cultured in RPMI 1640 medium (Biochrom®-Merck Millipore), Caki-2 was cultured in Mc Coys medium (Biochrom®-Merck Millipore) and HK2 was cultured in RPMI 1640 medium (Biochrom®-Merck Millipore). All the media were supplemented with 10% heat inactivated FBS (Biochrom®-Merck Millipore) and 1% antibiotic/antimitotic mixture (Invitrogen®). All cells were grown in a humidified incubator at 37° C. and 5% CO2. […]

The next assay deals with glioma cell line U87. The assay is described as follows: Cell viability MTS assay, U87. The conditions noted are these: Homo sapiens, 72 hours. Here is the method: (§2) In an embodiment, the antiproliferative activity of compounds MC408, MC409, MC421 and MC406 was further determined against glioma cell lines (U87, GAMG and GL18) and acute leukemia cell lines (HL-60, KG-1 and Jurkat). This was done in order to evaluate if the compounds presented an equally interesting anticancer profile in other cancer cell models. Cell viability was determined using the MTS assay, after exposure of the cells to the respective compounds for 72 hours at appropriate concentration ranges to determine the respective IC50 values.
as §1

The test system of assay [2] is acute leukemia cell line HL-60. The assay is described as follows: Cell viability MTS assay, HL-60. The conditions noted are these: Homo sapiens, 72 hours. The method, then:
as §2, §1
In general terms: Formazan colour is commonly taken as a measure of viable cells.

Assay [3] concerns acute leukemia cell line Jurkat. The assay is described as follows: Cell viability MTS assay, Jurkat. The conditions noted are these: Homo sapiens, 72 hours. The method, then:
as §2, §1

In the next assay the test system is 786-O cells. Put plainly: BrdU proliferation assay, 786-O. The conditions noted are these: 48 hours; IC50 and ½IC50. Here is the method:
In an embodiment, the effect of preferred chromene-based compounds on cell proliferation was evaluated. […] Results are presented as mean±SD at least three independent experiments. *p<0.05, **p<0.01, ***p<0.0005, ****p<0.0001 compared to control (0.5% DMSO). The significance of the difference between different groups was determined with Student t test. […] Exceptions are observed for compounds MC409, MC410 and MC368.
In an embodiment, proliferation assay was performed. 786-O cells were plated in 96-well plates at a density of 7000 cells/[…], and allowed to incubate overnight at 37° C. in a 5% CO2 humidified atmosphere. […] After incubation, cells were labelled by addition of 10 μl/well BrdU labelling solution (final concentration: 40 μM BrdU). The cells were then re-incubated for 16 h to allow BrdU to incorporate into the proliferating cell DNA, replacing thymidine. […] The immune complexes were detected by the addition of substrate solution (100 μl/well) and the plate was incubated at room temperature until color development was satisfactory for photometric detection (5-10 min). […] The reaction product was quantified by measuring absorbance at 450 nm (reference wavelength: 690 nm) in microplate reader (Tecan Infinite M200). […] The results of at least three independent experiments (in quadruplicate) were evaluated using GraphPad Prism 5 software.

For assay [4], the system named is Caki-2 cediranib-resistant cells. Put plainly: BrdU proliferation assay, Caki-2 cediranib-resistant. The conditions noted are these: 24 and 48 hours; IC50 and ½IC50; drug-resistant.

The term IC50 denotes the concentration that gives 50% inhibition. A higher IC50 goes with lower potency.

As for `COc1cccc2c1Oc1nc(-c3ccc(F)cc3)[nH]c1C2` [MC409, 2-(4-fluorophenyl)-5-methoxy-3,9-dihydrochromeno[2,3-d]imidazoles], the IC50 in assay [1] was determined as 120 nM; in the assay on glioma cell line U87, 0.37 µM; in assay [2] it was 0.65 µM; in assay [3], 0.37 µM. Besides, the “effect on cell proliferation (BrdU incorporation)” value in the assay with 786-O cells was “Exceptions”.

As to `COc1cccc2c1Oc1nc(-c3ccc(Br)cc3)[nH]c1C2` [MC408, 2-(4-bromophenyl)-5-methoxy-3,9-dihydrochromeno[2,3-d]imidazoles], the IC50 in assay [1] is 27 nM; in the assay on glioma cell line U87, 1.85 µM; in assay [2] it was 0.57 µM; in assay [3], 0.19 µM.

Take `COc1cccc2c1Oc1nc(-c3ccc(Br)cc3)[nH]c1C2C1c2cccc(OC)c2Oc2nc(-c3ccc(Br)cc3)[nH]c21` (stereo not drawn) [MC421, 2,2′-bis(4-bromophenyl)-5,5′-dimethoxy-1,1,9,9′-tetrahydro-9,9′-bichromeno[2,3-]imidazoles]: the half-maximal inhibitory concentration (IC50) in assay [1] was determined as 440 nM; in the assay with glioma cell line U87, 0.034 µM; in assay [2], 0.25 µM; in assay [3], 0.18 µM. Besides, the “effect on cell proliferation (BrdU)” value in assay [4] was “decrease cell proliferation”.

As to `COc1cccc2c1Oc1nc(-c3ccc(F)cc3)[nH]c1C2C1c2cccc(OC)c2Oc2nc(-c3ccc(F)cc3)[nH]c21` (stereo not drawn) [MC406, 2,2′-bis(4-fluorophenyl)-5,5′-dimethoxy-1,1,9,9′-tetrahydro-9,9′-bichromeno[2,3-]imidazoles], the IC50 came to 320 nM in assay [1], 0.17 µM in the assay on glioma cell line U87, 0.65 µM in assay [2] and 0.12 µM in assay [3].

Regarding `COc1cccc2c1Oc1nc(-c3ccc(O)cc3)[nH]c1C2` [MC413, 4-(5-methoxy-3,9-dihydrochromeno[2,3-d]imidazol-2-yl)phenol], the “effect on cell proliferation (BrdU)” value in assay [4] is on record as “decrease cell proliferation”.

Take `COc1cccc2c1Oc1nc(-c3cc(F)cc(F)c3O)[nH]c1C2` [MC410, 2,4-difluoro-6-(5-methoxy-3,9-dihydrochromeno[2,3-d]imidazol-2-yl)phenol]: the “effect on cell proliferation (BrdU incorporation)” value in the assay on 786-O cells is given as “Exceptions”.

With `COc1cccc2c1Oc1nc(-c3ccccc3)[nH]c1C2` [MC350, 5-methoxy-2-phenyl-3,9-dihydrochromeno[2,3-d]imidazoles], in assay [4], the “effect on cell proliferation (BrdU)” value is given as “decrease cell proliferation”.

The values above are taken from patent US12391701B2, “Chromene-based compounds, methods and uses thereof” (University of Minho, priority 2019, dated 2025).
